# According to EP0913150A1, “Combination of actives, viz. salicyl alcohol and fumaric acid and/or maleic acid, for the treatment of seborrheoic skin diseases, especially psoriasis” (Phytexpert, Pharm-Tox-Consulting GmbH, priority 1997, dated 1999):
# Where two headings read alike, the source gives them in different places.
# Key:
# [1] = tested on: menschlichen Keratinozyten (HaCat); assay: Inhibition of cell proliferation, neutral red (NR) method; format: cell-based; settings: Homo sapiens, read-out: NR-Methode *IC50
# Description: (§1) Die Zellproliferation der Hautzellen wurde anhand der bekannten Neutralrotmethode untersucht. Die Zellschädigung wurde durch gleichzeitige Untersuchung der Freisetzung eines cytosolischen Enzyms, der Lactatdehydrogenase, zusätzlich bestimmt. In einigen Versuchen wurde auch die DNA-Synthese anhand der Inkorporation von ^3H-Thymidin mituntersucht.
# [2] = Cytotoxicity, release of lactate dehydrogenase (LDH); format: cell-based, menschlichen; settings: human
# Description: as §1
# [3] = tested on: menschlichen Keratinozyten (HaCat); assay: DNA synthesis, 3H-thymidine incorporation; format: cell-based; settings: Homo sapiens; HaCat keratinocytes; influence on DNA synthesis; read-out: ^3H-Thymidin-Einbau
# Description: as §1
# [4] = HaCat keratinocytes, 50% inhibition of cell growth
Compound,"IC50 [1, 4]",CC50 ([2]; hacat keratinocytes),IC50 [3],IC50 ([1]; HaCaT),"CC50 ([2]; HaCat keratinocytes, measure of cytotoxicity, as concentration of the active substance, read-out: LDH-Freisetzung*)"
"OCc1ccccc1O [Salicylalkohol, 2-Hydroxybenzylalkohol]",780 µg/mL,> 600 µg/mL,300 µg/mL,–,–
O=Cc1ccccc1O [Salicylaldehyd],34 µg/mL,> 100 µg/mL,–,–,–
"O=C(O)c1ccccc1O [Na-Salicylat, Natriumsalicylat]",–,–,–,1500 µg/mL,> 2000 µg/mL
C[C@@H]1C[C@H]2[C@@H]3CCC4=CC(=O)C=C[C@]4(C)[C@@]3(F)[C@@H](O)C[C@]2(C)[C@@]1(O)C(=O)CO [Dexamethason],–,> 600 µg/mL,–,800 µg/mL,–
O=C(O)/C=C\C(=O)O [Maleinsäure],1700 µg/mL,> 1000 µg/mL,–,–,–
"O=C(O)/C=C/C(=O)O [Na-Fumarat, Natriumfumarat]",4900 µg/mL,> 10000 µg/mL,–,–,–
